From patent publication US20220143035A1, “METHODS FOR TREATING AUTOIMMUNE OR AUTOINFLAMMATORY DISEASE” (UNIVERSITY OF WASHINGTON, priority 2019, published 2022) come the findings set out here.

Assay type in all cases: cell-based, human
In experiment [1] the test system is endoplasmic reticulum (ER) stress response. Kind of experiment: Endoplasmic reticulum stress response in HEK 293 cells. The settings on record: 500 nM Thapsigargin, control.
The subject of experiment [2] is IRF3 S386 phosphorylation. As to the kind of experiment: Western blot of IRF3 pS386 in HEK 293 cells after DNA damage or stress agents. The settings on record: STING KO HEK 293 cells, up to 12 hours; 50 μM Etoposide, 500 nM Thapsigargin.
In experiment [3] the test system is histone H2AX on serine 139 (γ-H2AX). As to the kind of experiment: Western blot of γ-H2AX phosphorylation in CT DNA-treated STING KO U937 cells. Particulars: PMA-differentiated STING KO U937 cells, CT DNA 16 hours; Ku-60019 0.125-1 μM, Nu-7441 0.25-2 μM; FIG. 4A. The method, then:
(§1) FIG. 4A-K: Human DNA-PK is essential for the SIDSP. (A) PMA-differentiated STING KO U937 cells were treated with CT DNA for 16 hours in the presence of DMSO control, increasing concentrations of Ku-60019 ATM inhibitor [0.125, 0.25, 0.5, 1 μM], or Nu-7441 DNA-PK inhibitor [0.25, 0.5, 1, 2 μM], followed by western blot analysis of γ-H2AX phosphorylation. (B) PMA-differentiated STING KO U937 cells were treated with CT DNA for 16 hours in the presence of inhibitors as described in (A), followed by RT-qPCR analysis of IFNB1 mRNA expression. n.s.: not significant; ***:p<0.001. n=3 independent treatments per condition. (C) PMA-differentiated STING KO U937 cells were treated with CT DNA or RIG-I ligand in the presence of DMSO or Nu-7441 for 16 hours, followed by RT-qPCR analysis of IFNB1 mRNA expression. n.s.: not significant; ***:p<0.001. n=3 independent treatments per condition. […] (F) Primary human foreskin fibroblasts (HFF) and primary human hepatocytes from male (♂) and female (♀) donors were assessed for cGAS, STING, and DNA-PK proteins by fractionation into cytosol (C) and nuclear (N) extracts, followed by western blot. […] Multiple t-tests with significance determined by the Holm-Sidak method were used to compare IFNB1 in DMSO versus Nu7441 treated cells. *:p<0.05, ****:P<.0001. n=3 independent treatments per condition. […]
On the technique in general: A western blot detects proteins with antibodies after separation by electrophoresis.

The subject of experiment [4] is STING-independent DNA sensing pathway (SIDSP). As to the kind of experiment: RT-qPCR of IFNB1 mRNA in CT DNA-treated STING KO U937 cells. Particulars: PMA-differentiated STING KO U937 cells, CT DNA 16 hours; for SIDSP activation (IFNB1 mRNA expression): Ku-60019 0.125-1 μM, Nu-7441 0.25-2 μM, FIG. 4B. As to the method:
FIG. 4A-K: Human DNA-PK is essential for the SIDSP. (A) PMA-differentiated STING KO U937 cells were treated with CT DNA for 16 hours in the presence of DMSO control, increasing concentrations of Ku-60019 ATM inhibitor [0.125, 0.25, 0.5, 1 μM], or Nu-7441 DNA-PK inhibitor [0.25, 0.5, 1, 2 μM], followed by western blot analysis of γ-H2AX phosphorylation. (B) PMA-differentiated STING KO U937 cells were treated with CT DNA for 16 hours in the presence of inhibitors as described in (A), followed by RT-qPCR analysis of IFNB1 mRNA expression. n.s.: not significant; ***:p<0.001. n=3 independent treatments per condition. (C) PMA-differentiated STING KO U937 cells were treated with CT DNA or RIG-I ligand in the presence of DMSO or Nu-7441 for 16 hours, followed by RT-qPCR analysis of IFNB1 mRNA expression. n.s.: not significant; ***:p<0.001. n=3 independent treatments per condition. (D) Western blot analysis of DNA-PK and STING in clonal lines of H1 control, STING KO and STING/DNA-PK DKO U937 cells. (E) PMA-differentiated STING KO and STING/DNA-PK DKO U937 cells were treated with CT DNA for 16 hours in DMSO or 2 μM Nu-7441, followed by RT-qPCR analysis of IFNB1 mRNA expression, normalized to Lipo control-treated cells. **:p<0.01. n=3 independent treatments per condition. (F) Primary human foreskin fibroblasts (HFF) and primary human hepatocytes from male (♂) and female (♀) donors were assessed for cGAS, STING, and DNA-PK proteins by fractionation into cytosol (C) and nuclear (N) extracts, followed by western blot. The nuclear extract was treated with salt-active nuclease to remove genomic DNA. (G) The indicated cell lines were stimulated with cGAMP for 16 hours before harvest and RT-qPCR analysis of IFNB1 mRNA expression. […] Multiple t-tests with significance determined by the Holm-Sidak method were used to compare IFNB1 in DMSO versus Nu7441 treated cells. *:p<0.05, ****:P<.0001. n=3 independent treatments per condition. […]
A general note: Real-time PCR tracks product formation cycle by cycle.

For the next experiment, the system named is WT U937 cells. Kind of experiment: Global mRNA-Seq analysis in WT (H1 control) U937 cells. The text has this:
FIG. 5A-F: The DNA-PK SIDSP activates a broad gene expression program. (A) Heat map representation of log 2 Fold Change in gene expression for the 124 antiviral response genes with significant differential expression in one of the four comparisons. The key includes a histogram in cyan plotting the distribution of log 2 Fold Change values for all the included genes. Data represent the average of three independent treatments per condition. […] Data represent the average of three independent treatments per condition. […] Data represent the average of three independent treatments per condition. (D) In H1 control U937 cells, the 16 hour CT DNA-activated log 2 Fold Change was plotted for DMSO control-treated cells on the x-axis and for Nu-7441-treated cells on the y-axis. Each dot represents a single gene that was differentially expressed at 16 hours in DMSO-treated cells (n=1024). […]
FIG. 8A-E: Normalized mRNA-Seq data comparing WT and STING KO U937 cells. (A) Boxplot depicting normalized read counts in log 2CPM format across all 36 samples. […] (C) Normalized read counts in log 2CPM format, comparing Lipo-treated WT U937 cells to Lipo-treated STING KO U937 cells. (D) Normalized read counts in log 2CPM format, comparing Lipo-treated WT U937 cells pretreated with DMSO or 2 μM N-7441. (E) Normalized read counts in log 2CPM format, comparing Lipo-treated STING KO cells pretreated with DMSO or 2 μM N-7441. […]

Experiment [5] has as its system STING KO U937 cells (DNA-PK SIDSP). As to the kind of experiment: Global mRNA-Seq analysis in STING KO U937 cells.
Text: (A) Heat map representation of log 2 Fold Change in gene expression for the 124 antiviral response genes with significant differential expression in one of the four comparisons. The key includes a histogram in cyan plotting the distribution of log 2 Fold Change values for all the included genes. Data represent the average of three independent treatments per condition. […] Data represent the average of three independent treatments per condition. […] Data represent the average of three independent treatments per condition. (D) In H1 control U937 cells, the 16 hour CT DNA-activated log 2 Fold Change was plotted for DMSO control-treated cells on the x-axis and for Nu-7441-treated cells on the y-axis. Each dot represents a single gene that was differentially expressed at 16 hours in DMSO-treated cells (n=1024). […] A Wilcoxon matched pairs signed rank test was used to determine the p-value between DMSO control and Nu-7441-treated samples after DNA stimulation. Data represent the average of three independent treatments per condition. […]
Total RNA was added directly to lysis buffer from the SMART-Seq v4 Ultra Low Input RNA Kit for Sequencing (Takara), and reverse transcription was performed followed by PCR amplification to generate full length amplified cDNA. […] Libraries were pooled and quantified using a Qubit® Fluorometer (Life Technologies). Dual-index, single-read sequencing of pooled libraries was carried out on a HiSeq2500 sequencer (Illumina) with 58-base reads, using HiSeq™ v4 Cluster and SBS kits (IIlumina) with a target depth of 5 million reads per sample.
The test system of experiment [6] is RNA-activated RIG-I-MAVS pathway. Kind of experiment: RT-qPCR of IFNB1 mRNA in RIG-I ligand-treated STING KO U937 cells. The settings on record: PMA-differentiated STING KO U937 cells, RIG-I ligand 16 hours, DMSO or Nu-7441; FIG. 4C. As to the method: as §1

For `C/C=C(/C)C(=O)O[C@H]1C(C)=C2[C@H]([C@@H]1OC(=O)CCCCCCC)[C@@](C)(OC(C)=O)C[C@H](OC(=O)CCC)[C@@]1(O)[C@H]2OC(=O)[C@@]1(C)O` [thapsigargin], in experiment [1], the “endoplasmic reticulum (ER) stress response” value was “induced a potent endoplasmic reticulum (ER) stress response”. Further, the “activation of IRF3 phosphorylation” value in experiment [2] is “but not IRF3, HSPA8, or H2AX phosphorylation”.

Consider `C[C@@H]1CN(CC(=O)Nc2ccc3c(c2)Cc2cccc(-c4cc(=O)cc(N5CCOCC5)o4)c2S3)C[C@H](C)O1` [Ku-60019], for which the “DNA-activated phosphorylation of the histone H2AX on serine 139 (γ-H2AX)” value in experiment [3] is listed as “reduced the DNA-activated phosphorylation of the histone H2AX on serine 139 (γ-H2AX) in a concentration-dependent manner”. The “SIDSP activation (IFNB1 mRNA expression)” value in experiment [4] is on record as “unaffected”.

In the case of `O=c1cc(N2CCOCC2)oc2c(-c3cccc4c3sc3ccccc34)cccc12` [Nu-7441, 8-(dibenzo[b,d]thiophen-4-yl)-2-morpholino-4H-chromen-4-one], in the experiment with WT U937 cells (16 hours post DNA transfection, 2 μM Nu-7441 vs vehicle, 718/1024 genes, FIG. 5D), the “differentially expressed genes on which the inhibitor had a (mild) inhibitory effect” value was 70.1%. The “effect on gene expression in the absence of DNA stimulation” value in the experiment on WT U937 cells (Lipo-treated, 2 μM, FIG. 8D) is “no significant effect”; in experiment [5] (STING KO U937 cells, Lipo-treated, 2 μM, FIG. 8E), “no significant effect”. In addition, the “DNA-activated phosphorylation of the histone H2AX on serine 139 (γ-H2AX)” value in experiment [3] is given as “reduced the DNA-activated phosphorylation of the histone H2AX on serine 139 (γ-H2AX) in a concentration-dependent manner”. In addition, the “differentially expressed genes on which the inhibitor had an inhibitory effect” value in experiment [5] (STING KO U937 cells, 16 hours post DNA transfection, 2 μM Nu-7441 vs vehicle, 1254/1327 genes, up- and downregulated, FIG. 5E) is 94.5%. For the same compound, the “gene expression triggered by the SIDSP” value in experiment [5] (summary statement in discussion) is “potently reduced nearly all gene expression”. In experiment [6], the “RNA-activated RIG-I-MAVS pathway (IFNB1 mRNA expression)” value is “had no effect”. Also, in experiment [4] (DMSO or Nu-7441, FIG. 4C), the “DNA-activated antiviral response (IFNB1 mRNA expression)” value was “blocked the DNA-activated antiviral response”. Besides, the “SIDSP activation (IFNB1 mRNA expression)” value in experiment [4] is on record as “potently blocked”.
